From patent US6506737B1, “Antimicrobial phosphonium and sulfonium polyhalide compositions” (Ecolab, Inc., priority 2000, dated 2003)

Assays:
S. aureus = assay: Biocidal efficacy, log reduction of S. aureus (Table 2); type: cell-based, Staphylococcus aureus; details: total active 0.12-0.89 mmole/liter as listed per composition; for Log Reduction (S. aureus) (30 seconds): 30 seconds exposure; for Log Reduction (S. aureus) (60 seconds): 60 seconds exposure
[1] = test system: Staphylococcus aureus (ATCC 6538); assay: Antimicrobial efficacy, log reduction at 12 grams per gallon in sterile deionized water (Table 3); type: cell-based; details: ambient temperature
Experimental: (§1) A 4% solution of trimethyl sulfonium triiodide and a solution of 20% hexadecyl tributyl phosphonium diiodochloride were tested at a concentration of 12 grams per gallon in sterile deionized water against Staphylococcus aureus (ATCC 6538).

[2] = pH of the test solution (Table 3); type: physicochemical; details: test substance at 12 grams per gallon in sterile deionized water
Experimental: as §1

| SMILES | Log Reduction (S. aureus) (30 seconds) (S. aureus) | Log Reduction (S. aureus) (60 seconds) (S. aureus) | Log Reduction ([1]; exposure time 15 seconds) | Log Reduction ([1]; exposure time 30 seconds) | Log Reduction ([1]; exposure time 5 minutes, listed as 20% hexadecyl tributyl phosphonium diiodochloride) | pH [2] | Log Reduction ([1]; exposure time 30 seconds, listed as 4% trimethyl sulfonium triiodide) | Log Reduction ([1]; exposure time 5 minutes) |
| --- | --- | --- | --- | --- | --- | --- | --- | --- |
| C[N+](C)(C)CCO.Cl[I-]I [choline chloro diiodide] | >6.9 | >6.9 | – | – | – | – | – | – |
| CCCC[N+](CCCC)(CCCC)CCCC.Cl[I-]I [tetrabutyl ammonium chloro diiodide] | >6.4 | >6.4 | – | – | – | – | – | – |
| C[N+](C)(C)C.Cl[I-]I [tetramethyl ammonium chloro diiodide] | 4.0 | >6.8 | – | – | – | – | – | – |
| CCCCCCCCCCCCCCCC[P+](CCCC)(CCCC)CCCC.Cl[I-]I [tributyl hexadecyl phosphonium chloro diiodide] | 5.0 | 6.2 | 3.74 | 4.98 | 6.21 | 4.61 | – | – |
| C[S+](C)C.I[I-]I [trimethyl sulfonium triiodide] | >7.0 | >7.0 | 4.67 | – | – | 2.52 | >6.95 | >6.95 |
